Data from ChEMBL document CHEMBL3507680, “University of Dundee, Gates Library screen for HepG2 cell viability”.

Experiment: Human HepG2 cell viability assay in 384 well format
Format: toxicity, cell-based
Parameters: dose 125 nL, time 70.5 hour; concentration not given beside the values
Settings: HepG2 cells, read-out: Inhibition

Compound	cytotoxicity at 70.5 h [%]
O=C(C1CC12CCC2)N1CCC(n2cc(-c3ccsc3)nn2)CC1 (stereo unspecified)	-9.29
O=C(c1ccccc1)N1CC[C@H]2C[C@H](c3nnc(C4CC4)o3)O[C@@H]2C1	-9.97
COc1cc(Cl)ccc1C(=O)NCC(=O)Nc1nccs1	-5.69
CCc1nc2c(NCC3COc4ccccc4C3)ncnc2o1 (stereo unspecified)	-1.81
Cc1noc(C)c1CN1C[C@H](OCc2ccncc2)[C@H]2OCCC[C@H]21	-13.2
Cc1nc(C)n(C2CCCN(C(=O)c3sccc3C)C2)n1 (stereo unspecified)	-5.74
CCn1c2c(ccc1=O)CC(N)CC2 (stereo unspecified)	15.2
O=C(COc1ccc(C(F)(F)F)cc1)N1CCOCC1c1ncon1 (stereo unspecified)	-6
CN(CCSc1nncn1C(C)(C)C)c1ccccc1	31
Cc1nn(C)c(Cl)c1C1CCCN1Cc1nnc(C2CC2)o1 (stereo unspecified)	-5.62
CC(C)Sc1ccc(N2CCN(Cc3ccccn3)CC2)nn1	-12.7
O=C(O)[C@]12CCCN(Cc3ccncc3)C[C@H]1CN(c1ncccn1)C2	2.52
CN1CCCCC12CCN(c1nncs1)CC2	1.8
Clc1cccnc1N1CCC(NCc2cccc3cn[nH]c23)C1 (stereo unspecified)	-4.87
CCc1nc(N2CCC3(CC2)OCCCC3O)ncc1C (stereo unspecified)	-2.39
O=C(NC1CCN(c2cc(-n3ccnc3)ncn2)CC1)c1ccncc1	-10.4
CCCn1nc(C)c2c(C(F)F)cc(=O)n(CC(=O)O)c21	-8.97
CCOCCCC(=O)Nc1cc(C(N)=O)ccc1N1CCCCC1	-9.3
CCc1ncc2c(n1)CN(c1cc(N3CCN(C)CC3)nc(N)n1)C2	25
COCCN(CCOC)C(=O)c1ccc(Cn2nc(C)cc2C)cc1	7.43
CCN1CC[C@@]2(C(=O)N3CCCC3)CCN(S(C)(=O)=O)CC[C@@H]12	-8.95

Compound	cytotoxicity at 70.5 h [%]
CCOC(=O)C1CCCCN1Cc1c[nH]nc1-c1ccc(F)cc1F (stereo unspecified)	-7.54
CC(=O)N1CCC1c1cc(N2CCNC(=O)C2)nc(C)n1 (stereo unspecified)	-5.23
CCCn1cc(CN2CCCC2c2cccc(-n3ccnc3)n2)cn1 (stereo unspecified)	-7.28
Cc1ccc(CN2CCc3ncnc(-c4ccc(F)cc4)c3CC2)o1	-14.6
CN(Cc1cnn(C)c1)C(=O)NC1CCCC1	-7.1
COc1ccc(CN2CCCCC2Cn2nc(C)nc2C)cc1F (stereo unspecified)	-1.41
Cc1nc(C)c(C)c(N2CCC(NCCOc3ccccc3)CC2)n1	17.8
CC(NC(=O)NCCCN1CCCCCC1=O)c1nncn1C (stereo unspecified)	10.2
COC(=O)CN1CC(c2nc(Cc3ccccc3)no2)C1	-6.57
CN1CCN(C(=O)c2cc3sccc3n2Cc2ccccc2Cl)CC1	-6.69
Cc1cc(C(=O)N2C[C@@H]3COC[C@]3(c3nnc(C4CC4)o3)C2)on1	-19
Cn1c(NCC(O)c2ccc(F)c(F)c2)c(C#N)c(=O)n(C)c1=O (stereo unspecified)	1.75
NC(=O)c1cc(C2CCCN(C(=O)CCc3ccncc3)C2)n[nH]1 (stereo unspecified)	-4.91
COc1ccc(CCN(C)C(=O)CN2C(=O)OC[C@@H]2C(C)C)cc1OC	-4.47
Cc1cc(Nc2cnccn2)nc(C2CCCN(CCO)C2)n1 (stereo unspecified)	-10.3
Cc1cc(C)c2cc(CNCc3ccco3)c3nn(C)c(=O)n3c2c1	19.9
O=C(Cc1cccs1)NCc1ccnc(C2CCCOC2)n1 (stereo unspecified)	3.29
COc1ccc(F)cc1Cn1nc(C(N)=O)ccc1=O	6.09
CC(C)c1cc(NC2CCCN(C(=O)c3cccs3)C2)ncn1 (stereo unspecified)	2.55
Cn1cc(CN2CCC(c3cc(CCO)[nH]n3)C2)cn1 (stereo unspecified)	-8.16
CC(C)Oc1ncccc1CNC(=O)N1CCSCC1	-2.87

Compound	cytotoxicity at 70.5 h [%]
Cc1cc(C)c2c(N(C)CC3CCN(CC(C)C)C3)ncnc2n1 (stereo unspecified)	-2.13
Cc1cccc(C(C(=O)N(C)CCc2cn[nH]c2)N(C)C)c1 (stereo unspecified)	-8.71
Cc1nnc(SCC(=O)N2CCc3[nH]nc(C4CCC4)c3C2)o1	8.24
CN(C)S(=O)(=O)N1CCN(C(=O)c2cc(-c3ccccc3)[nH]n2)CC1	-0.515
CN1C[C@@H](COCC2CC2)[C@H]2CCN(Cc3ccco3)CC[C@H]2C1=O	-5.7
Cn1cccc(NC(=O)NCCOCc2ccccc2)c1=O	-13.2
O=S(=O)(c1cncc(F)c1)N1CCSC2(CCCCC2)C1	-10.2
Cc1cccnc1C(=O)N1C[C@@H]2CC[C@H](Oc3cccc(F)c3)[C@@H]2C1	-8.25
Cc1noc([C@@H]2C[C@H]3CN(CC4CCOCC4)C[C@H]3O2)n1	14.1
Cn1cnnc1CC1CCN(Cc2nn(C)c3cccc(Cl)c23)CC1	39.8
CC(C)Cc1cc(CNC(=O)c2ccccc2C2CCNC2)no1 (stereo unspecified)	-17.5
CC(C)Nc1ncnc2c1CCN(Cc1nccn1C)CC2	8.85
O=C(NC1CCN(c2ncccn2)CC1)c1cccc(-n2ccnc2)c1	-7.96
Cc1cc(CN2CCN(C(=O)CCc3cccs3)CC2)on1	-18.8
CCn1cnnc1CCNC(=O)C1COc2ccc(OC)cc2C1 (stereo unspecified)	-11.5
Cc1ccccc1CNC(=O)c1ccccc1-n1cc(CN)cn1	-8.06
CN1CCCN(c2nccc(-c3c[nH]c4ccc(Br)cc34)n2)CC1	9.19
CC(C)N(Cc1ccccn1)C(=O)CCC(=O)c1ccc(F)cc1F	-14.3
CCc1nc(C2CCCN(C(=O)NC3CC3)C2)no1 (stereo unspecified)	-0.741
CCN(CC)C1COc2c(cc(Br)c(C)c2C)C1=O (stereo unspecified)	-6.45
CCN(Cc1ccccc1)C(=O)CCN1CC(O)C1	-16.3

Compound	cytotoxicity at 70.5 h [%]
O=C(C1CNCCO1)N1CCC(c2cc(N3CCCC3)ncn2)CC1 (stereo unspecified)	14.8
Cc1cnn(CC2CN(CCS(C)(=O)=O)CCO2)c1 (stereo unspecified)	-4.67
O=C(CN1C=Nc2ccccc2S1(=O)=O)NCc1ccccc1F	-9.4
COc1cc(N2C[C@H]3CCC[C@@H](CN4CCOCC4)[C@H]3C2)ncn1	-8.48
Cc1c(C(C)NC(=O)Nc2ccc(F)cc2F)cnn1C (stereo unspecified)	-3.54
Cc1csc(CNC(=O)Nc2ccc3c(c2)OCO3)n1	-7.99
O=C(Nc1ccc(CCN2CCSCC2)cc1)NC1CC1	-11.9
O=S(=O)(C1CC1)N1CC[C@]2(C[C@@H](Oc3ccccn3)CO2)C1	-18.9
O=S(=O)(NCc1cn2ccccc2n1)N1CCOCC1	-12.1
Cc1nc(CN2CC[C@H]3[C@H]2CCN3c2nncs2)cs1	-3.7
CCc1n[nH]c(C2CN(Cc3nnc(C4CCC4)o3)CCO2)n1 (stereo unspecified)	-7.61
CC(C)c1nnc(CN(C)C(c2ccccc2)c2ccc(F)cc2)o1 (stereo unspecified)	-2.6
Cc1ccc(C(=O)NCC2(O)CCOCC2)cc1Br	-7.13
Cc1n[nH]cc1CNCC1(c2cccc(F)c2)CCOCC1	-5.63
CC(=O)N1CCCN(C(C)c2ccc(Br)cc2)CC1 (stereo unspecified)	17.2
CC(CNC(=O)c1cnc[nH]1)Oc1ccccc1Br (stereo unspecified)	-15.7
COC(=O)c1cccc(S(=O)(=O)NC(=O)CC2CCCC2)c1	22.5
O=C(Cc1cnc(-c2c(Cl)cccc2Cl)s1)N1CCC2(CC1)OCCO2	-14.1
